Reference: EP0412158A1, “ONCOSTATIC DRUG” (priority 1987, dated 1988)

Assays:
[1] = Antineoplastic activity against transplanted methyl cholanthrene A tumor, evaluation by size of tumor (Examples 1 to 6); type: in vivo, female BALB/C mice; details: mouse, in vivo, ip
Experimental: (§1) By dissolving alkylammonium salt of polymolybdic acid [NH3C3H7(iso)]s [Mo7O24] • 3H2O (Compound A) and other compounds (Compounds B to D) severally in distilled water, aqueous solutions containing the compounds in a fixed concentration of 10 mg/ml were obtained. These aqueous solutions were administered to female BALB/C mice (five weeks old) to which methyl cholanthrene A tumor had been transplanted to test the compounds for antineoplastic activity. To be specific, methyl cholanthrene A was transplanted to the mice in a ratio of 1.0 x 10^5 cells per mouse and the aqueous solutions were continuously administered to the mice by intraperitoneal injection ([…]) for nine days. On elapse of 14 days following the start of the administration, the tumors in the mice were measured. For comparison, mice to which no antineoplastic .drug was administered and mice to which aminonitroso urea was administered were tested by following the procedure described above.

[2] = system: methyl cholanthrene A tumor; experiment: as above; type: in vivo, female BALB/C mice; details: 5 mg/kg, ip×9; for Change in body weight: body weight 13 days after transplantation; for T/control: tumor weight
Experimental: as §1

methyl cholanthrene A [3] = experiment: Methyl cholanthrene A tumor, evaluation by extension of period of survival (Examples 7 to 11); type: in vivo, female BALB/C mice; details: 5 mg/kg; for Average number of days of survival / Number of toxically killed mice/total number of mice / T/control: ip×9; for Change in body weight: ip×9, D1~D9; for T/control: days of survival
Experimental: The aforementioned compounds, A to D, were severally dissolved in distilled water to obtain aqueous solutions containing the compounds in a fixed concentration of 10 mg/ml. To the female BALB/C mice (five weeks old) to which methyl cholanthrene A had been transplanted in a ratio of 1.0 x 10^5 cells per mouse, […] to determine the mices' periods of survival. For comparison, mice to which no antineoplastic drug was administered and mice to which aminonitroso urea was administered were similarly tested.

[4] = Methyl cholanthrene A tumor, evaluation by weight of tumor (Examples 13 to 16); type: in vivo, female BALB/C mice; details: mouse, in vivo, ip; read-out: largest allowable dose
Experimental: Compound E, an alkali metal salt of polymolybdic acid (Example 13), and other compounds (Compounds F to H) mentioned above were severally dissolved in distilled water to obtain aqueous solutions containing the compounds in a fixed concentration of 10 mg/ml. These aqueous solutions were administered to female BALB/C mice (five weeks old) to which methyl cholanthrene A tumor had been transplanted to test the compounds for antineoplastic activity. To be morespecific, the methyl cholanthrene A was transplanted to the mice in a ratio of 1.0 x 10^5 cells per mouse and the aqueous solution was continuously administered (at a dose of 100 mg/kg of body weight) for nine days by intraperitoneal injection. On elapse of 14 days after the stop of the administration, the tumors in the mice were weighed. For comparison, mice to which the aqeuous solution was not administered and the mice to which aminonitrosourea was administered were similarly tested.

[5] = Methyl cholanthrene A tumor, evaluation by size of tumor (Examples 31 to 33); type: in vivo, female BALB/C mice; details: mouse, in vivo, ip; read-out: largest allowable dose
Experimental: (§2) A heteropoly acid salt, Na5[IM06O24]•34H2O (Compound M), and other compounds (Compounds N and O ) were severally dissolved in distilled water to obtain aqueous solutions containing the salts in a fixed concentration of 10 mg/ml. To female BALB/C mice (five weeks old) to which methyl cholanthrene A tumor had been transplanted, the aqueous solutions were administered to test the compounds for antineoplastic activity. To be specific, the methyl cholanthrene A was transplanted to the mice at a ratio of 1.0 x 10^5 cells per mouse and the aqueous solutions were administered ([…]) for 9 consecutive days by intraperitoneal injection. On elapse of 14 and 21 days after the stop of the administration, the sizes of tumors in the mice were measured. For comparison, mice to which no aqueous solution was administered and mice to which aminonitrosourea was administered were similarly tested.

[6] = system: methyl cholanthrene A tumor; experiment: as above; type: in vivo, female BALB/C mice
Experimental: as §2

methyl cholanthrene A [7] = experiment: Methyl cholanthrene A tumor, evaluation by elongation of period of survival (Examples 31, 34 and 35); type: in vivo, female BALB/C mice
Experimental: The active compounds, M to 0, mentioned above were severally dissolved in distilled water to obtain aqueous solutions containing the compounds in a fixed concentration of 10 mg/ml. To be specific, to female BALB/C mice (five weeks old) to which methyl cholanthrene A had been transplanted in a ratio of 1.0 x 10^5 cells per mouse, […] for 9 consecutive days to determine the mice's periods of survival. For comparison, mice to which no aqueous solution was administered and mice to which aminonitrosourea was administered were similarly tested.

[8] = system: methyl cholanthrene A tumor; experiment: Methyl cholanthrene A tumor, evaluation by weight of tumor (Examples 13 to 16); type: in vivo, female BALB/C mice; details: 5 mg/kg
methyl cholanthrene A [9] = experiment: Methyl cholanthrene A tumor, evaluation by elongation of period of survival (Examples 17 to 20); type: in vivo, female BALB/C mice; details: 5 mg/kg ×9
[10] = MM-46 breast cancer, evaluation by size of tumor (Examples 21 to 24); type: in vivo, female C3H/He mice; details: mouse, in vivo, ip; read-out: largest allowable dose
MM-46 breast cancer [11] = experiment: as above; type: in vivo, female C3H/He mice; details: 5 mg/kg
MM-46 breast cancer [12] = type: in vivo, female C3H/He mice; details: 5 mg/kg, ip × 9

Cc1ncc(CNC(=O)N(CCCl)N=O)c(N)n1 [reference compound]
MTD [1]: 5 mg/kg
Average weight of tumor ([2]; No. 1): 1151.1 ± 162.7 mg
Number of tumorless mice /total number of mice ([2]; No. 1): 0/8
Change in body weight ([2]; No. 1): +1,58 (D1~D9) g
T/control ([2]; No. 1): 0.430
Average weight of tumor ([2]; No. 3): 1151.1 ± 162.7 mg
Number of tumorless mice /total number of mice ([2]; No. 3): 0/8
Change in body weight ([2]; No. 3): +1,58 (D1~D9) g
T/control ([2]; No. 3): 0.430
Average number of days of survival (methyl cholanthrene A [3]; No. 1): 35.8 ± 1.4 days
Number of toxically killed mice/total number of mice (methyl cholanthrene A [3]; No. 1): 0/8
Change in body weight (methyl cholanthrene A [3]; No. 1): +1.58 g
T/control (methyl cholanthrene A [3]; No. 1): 138.0
Average number of days of survival (methyl cholanthrene A [3]; No. 2): 28.0±3.1(9) days
Number of toxically killed mice/total number of mice (methyl cholanthrene A [3]; No. 2): 0/8
Change in body weight (methyl cholanthrene A [3]; No. 2): +1.58 g
T/control (methyl cholanthrene A [3]; No. 2): 124.5
MTD [4]: 5 mg/kg
MTD [5]: 7.5 mg/kg
Average weight of tumor after elapse of 14 days ± SE ([6]; 2.5 mg/kg, ip × 9 (D1~D9)): 347.9 ± 63.8 mg
T/C ([6]; 2.5 mg/kg, ip × 9 (D1~D9), tumor weight after 14 days): 0.405
T/C ([6]; 7.5 mg/kg, ip × 9, tumor weight after 14 days): 0.367
T/C ([6]; 7.5 mg/kg, ip × 9, tumor weight after 21 days): 0.444
Average number of days of survival ±SE (methyl cholanthrene A [7]; 2.5 mg/kg, ip × 9 (D1~D9)): 31.13±1.14(8) days
ILS (methyl cholanthrene A [7]; 2.5 mg/kg, ip × 9 (D1~D9)): 18%
Average number of days of survival ±SE (methyl cholanthrene A [7]; 7.5 mg/kg, ip × 9): 36.67±1.07(9) days
ILS (methyl cholanthrene A [7]; 7.5 mg/kg, ip × 9): 47.3%
Number of mice of no tumor/total number of mice (methyl cholanthrene A [7]; 7.5 mg/kg, ip × 9, observed 60 days after transplantation): 0/9
Average weight of tumor ([8]; ip × 9): 1151.1 ± 162.7 mg
Number of tumorless mice /total number of mice ([8]; ip × 9): 0/8
T/control ([8]; ip×9, tumor weight): 0.447
Change in body weight ([8]; ip×9 D1-D9, body weight 13 days after tumor transplantation): +1,58 g
Average number of days of survival (methyl cholanthrene A [9]): 28.0±3.1(9) days
Number of toxically killed mice/total number of mice (methyl cholanthrene A [9]): 0/8
Ratio of prolonging life (methyl cholanthrene A [9]): 24.4%
MTD [10]: 5 mg/kg
Average weight of tumor (MM-46 breast cancer [11]; ip × 9): 1364.3 ± 200.0 mg
Number of tumorless mice /total number of mice (MM-46 breast cancer [11]; ip × 9): 0/8
T/control (MM-46 breast cancer [11]; ip×9, tumor weight): 0.473
Average number of days of survival (MM-46 breast cancer [12]): 29.1±2.1(8) days
Average weight of tumor after 14 days (MM-46 breast cancer [12]): 1364.3 ± 200.0 mg
Ratio of elongation of life (5) (MM-46 breast cancer [12]): 76.4
